According to US8618179B2, “Composition comprising a pesticide and an alkoxylate of 2-propylheptylamine” (BASF SE, priority 2010, dated 2013):

Key:
Daphnia magna = experiment: Water toxicity on Daphnia magna, OECD Guideline 202 part 1; format: in vivo; conditions: 48 h
[1] = tested on: winter oilseed rape (cultivar Remy); experiment: Greenhouse test, glyphosate SL formulation on oilseed rape; format: in vivo; conditions: Table 2; 140 g of glyphosate/ha and 300 g of amine alkoxylate/ha
Description: A concentrated formulation comprising glyphosate isopropylammonium in solution in water and amine alkoxylate from Example 2 was diluted with deionized water and applied at a water application rate of 375 l/ha (140 g of glyphosate/ha and 300 g of amine alkoxylate/ha). The temperatures in the experimental period, which lasted for 3 to 4 weeks, were between 18-35° C. During this time, the experimental plants received optimum watering, with nutrients being supplied via the water used for watering. The herbicidal activity was evaluated by awarding scores to the treated plants in comparison to the untreated control plants (Table 2). […] Conversely, 0% activity means that there were no differences between treated and untreated plants. […] The application rate was 140 g of glyphosate/ha and 300 g of amine alkoxylate/ha.

[2] = Gelling upon addition of amine alkoxylate to glyphosate solution; format: physicochemical; conditions: addition at 20° C.
[3] = tested on: Ambrosia artemisiifolia (AMBEL); experiment: Greenhouse test, imazamox SL formulation on Ambrosia; format: in vivo; conditions: scored after 14 days; 10 g of imazamox/ha and 400 g of amine alkoxylate/ha
Description: (§1) The herbicidal activity was evaluated by awarding scores to the treated plants in comparison to the untreated control plants (Table 2). The evaluation scale ranges from 0% to 100% activity. 100% activity means the complete death at least of those parts of the plant that are above ground. Conversely, 0% activity means that there were no differences between treated and untreated plants.
(§2) The application rate was 10 g of imazamox/ha and 400 g of amine alkoxylate/ha. For comparison, a tallow fatty amine ethoxylate with 12 ethylene oxide units was used (liquid, approximately 100% content, molar mass approximately 730 g/mol (calculated from OH number), available commercially as Lutensol® FA12K from BASF SE).

[4] = tested on: Chenopodium album (CHEAL); experiment: Greenhouse test, imazamox SL formulation on Chenopodium; format: in vivo; conditions: scored after 14 days; 10 g of imazamox/ha and 400 g of amine alkoxylate/ha
Description: as §1, §2

Brachiarea multica = experiment: Field trial, glyphosate SL formulation with amine alkoxylate against weed; format: in vivo; conditions: glyphosate-isopropylammonium SL spray solution with amine alkoxylate, visual estimate
Description: To this end, in each case 1.0 l of spray solution (see table 1) was sprayed per plot using a manual sprayer. 1.0 l of the spray solution contained 7.5 ml of an aqueous formulation of dissolved glyphosate-isopropyl-ammonium salt. To prepare this formulation, 100 ml of amine alkoxylate of example 2 were previously made up to 1.0 l with 46% strength glyphosate-isopropylammonium salt solution. Two, five and seven days after the application, the destruction of the weed was estimated visually in percent. Rain fell repeatedly in the days between application and assessment.

[5] = Storage stability of glyphosate formulation with amine alkoxylate; format: physicochemical; conditions: temperatures of from 5 to +55° C.
Source text: Also, the formulation was rainfast.

Substance: 2-propylheptylamine ethoxylate [2-PHamine-7 EO]
- EC50 (Daphnia magna): 60 µg/mL
- Activity [%] after 14 days [1]: 75%
- Activity [%] after 21 days [1]: 86%
- Gelling upon addition to the glyphosate solution [2]: no gelling observed
- Activity [%] AMBEL [3]: 80%
- Activity [%] CHEAL [4]: 93%
- Proportion [%] of weed destroyed (Brachiarea multica; 2 days after application): 40%
- Proportion [%] of weed destroyed (Brachiarea multica; 5 days after application): 87.5%
- Proportion [%] of weed destroyed (Brachiarea multica; 7 days after application): 90%
- Storage stability of the formulation [5]: storage-stable for at least two weeks
